Read-outs that look alike come from different tables or passages of the source.
Columns and labels:
gastric mucosa = assay: Ulcerogenic liability (ulcer index); assay type: in vivo, albino mice; details: orally, three successive days, 10 mg/kg indomethacin mol equivalent; for Number of animals with ulcer: 6 animals per group; for Ulcer index: sum of the three values
Summary of the method: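 Albino mice were fasted 18 h before dosing, and controls got saline with a few drops of Tween 80. Gastric mucosa was checked under a 10× lens for lesions and erosions. The ulcer index combines percentage incidence divided by 10, mean ulcers per stomach and mean severity.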

[1] = system: carrageenan induced paw edema; assay: Anti-inflammatory activity: acute carrageenan induced paw edema in rats; assay type: in vivo, Wister rats; details: at 4 h effect; 10 mg kg^−1 indomethacin mol equivalent
Summary of the method: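 Wistar rats (120–150 g, n=6/group) received subplantar 1% carrageenan in the right hind paw, and DMSO-vehicle animals served as controls. Results are given as % inhibition of edema thickness versus control.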

[2] = system: MCF7 (breast) carcinoma cell line; assay: Anti-tumor properties, MTT; assay type: cell-based; details: Homo sapiens
Summary of the method: (§1)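 Cells seeded at 10×10^3 per well for 24 h, then exposed to compound in serum-free medium (final up to 100 μM, 0.5% DMSO vehicle) for 72 h in triplicate. Viability by MTT reduction (4 h, SDS solubilised), absorbance 595 nm/ref 620 nm; IC50 from survival curves.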

[3] = system: HepG2 (hepatocellular) carcinoma cell line; assay: Anti-tumor properties, MTT; assay type: cell-based; details: Homo sapiens
Summary of the method: as §1

[4] = system: HCT116 (colon) carcinoma cell line; assay: Anti-tumor properties, MTT; assay type: cell-based; details: Homo sapiens, HCT-116
Summary of the method: as §1

[5] = system: Streptococcus pyogenes ATCC19615; assay: Antimicrobial MIC, agar dilution
[6] = system: Candida albicans (local isolate); assay: Antimicrobial MIC, agar dilution; details: Candida albicans, read-out: Minimum inhibitory concentration (MIC)
[7] = ATCC19615, 18 h, read-out: Minimum inhibitory concentration (MIC)
[8] = ATCC19615, read-out: Minimum inhibitory concentration (MIC)

Row | SMILES | % Incidence of ulcer divided by 10 (gastric mucosa) | Average of ulcer number (gastric mucosa) | Average severity of ulcer (gastric mucosa) | Number of animals with ulcer (gastric mucosa) | Ulcer index (gastric mucosa) | Potency (% inhibition of edema relative to that of indomethacin reference standard) [1] | activity at 100 µM ([2]; MCF7, 100 μM, 72 h, read-out: Percentage growth of tumor cell lines treated with the tested compounds (±SD)) [%] | activity at 100 µM ([3]; HepG2, 100 μM, 72 h, read-out: Percentage growth of tumor cell lines treated with the tested compounds (±SD)) [%] | activity at 100 µM ([4]; HCT116, 100 μM, 72 h, read-out: Percentage growth of tumor cell lines treated with the tested compounds (±SD)) [%] | MIC [5, 7] [µg/mL] | MIC [5, 8] [µM] | MIC ([6]; 18 h) [µg/mL] | MIC [6] [µM] | IC50 ([2]; MCF7, read-out: IC50 (μM) MCF7 (breast)) [µM] | IC50 ([3]; HepG2, read-out: IC50 (μM) HepG2 (liver)) [µM] | IC50 ([4]; read-out: IC50 (μM) HCT116 (colon)) [µM]
1 | COc1cc(/C=C/C(=O)CC(=O)/C=C/c2ccc(OC(=O)C(C)NC(=O)OCc3ccccc3)c(OC)c2)ccc1OC(=O)C(C)NC(=O)OCc1ccccc1 (racemic) [Cbz-DL-Ala-Cur, ((1E,6E)-3,5-dioxohepta-1,6-diene-1,7-diyl)bis(2-methoxy-4,1-phenylene) bis(2-(((benzyloxy)carbonyl)amino)propanoate)] | 3.33 | 0.67 | 0.67 | 2/6 | 4.67 | 115 | 62.7 ± 4.7 | 82.9 ± 4.1 | 92 ± 2.1 | 0.125 | 0.161 | 0.5 | 0.642 |  |  | 
2 | COc1cc(/C=C/C(=O)CC(=O)/C=C/c2ccc(OC(=O)[C@H](N)CCSC)c(OC)c2)ccc1OC(=O)[C@H](N)CCSC.Cl.Cl [HCl-D-Met-Cur, (2R,2′R)-1,1′-((((1E,6E)-3,5-dioxohepta-1,6-diene-1,7-diyl)bis(2-methoxy-4,1-phenylene))bis(oxy))bis(4-(methylthio)-1-oxobutan-2-aminium) chloride] | 0 | 0 | 0 | 0/6 | 0 | 113 |  |  |  | 0.25 | 0.355 | 1 | 1.42 | 10.2 | 43.6 | 46.7

From US10660967B2, “Curcumin conjugates and methods of use thereof” (priority 2016, dated 2020)
